Among the data in ChEMBL document CHEMBL1201862, “PubChem BioAssay data set” (2004) are IC50, AC50 and EC50 values, retold here.

The target of experiment [1] is T1, Rac GTPase-activating protein 1 (Homo sapiens, UniProt Q9H0H5).
T1 sequence (Q9H0H5 whole entry): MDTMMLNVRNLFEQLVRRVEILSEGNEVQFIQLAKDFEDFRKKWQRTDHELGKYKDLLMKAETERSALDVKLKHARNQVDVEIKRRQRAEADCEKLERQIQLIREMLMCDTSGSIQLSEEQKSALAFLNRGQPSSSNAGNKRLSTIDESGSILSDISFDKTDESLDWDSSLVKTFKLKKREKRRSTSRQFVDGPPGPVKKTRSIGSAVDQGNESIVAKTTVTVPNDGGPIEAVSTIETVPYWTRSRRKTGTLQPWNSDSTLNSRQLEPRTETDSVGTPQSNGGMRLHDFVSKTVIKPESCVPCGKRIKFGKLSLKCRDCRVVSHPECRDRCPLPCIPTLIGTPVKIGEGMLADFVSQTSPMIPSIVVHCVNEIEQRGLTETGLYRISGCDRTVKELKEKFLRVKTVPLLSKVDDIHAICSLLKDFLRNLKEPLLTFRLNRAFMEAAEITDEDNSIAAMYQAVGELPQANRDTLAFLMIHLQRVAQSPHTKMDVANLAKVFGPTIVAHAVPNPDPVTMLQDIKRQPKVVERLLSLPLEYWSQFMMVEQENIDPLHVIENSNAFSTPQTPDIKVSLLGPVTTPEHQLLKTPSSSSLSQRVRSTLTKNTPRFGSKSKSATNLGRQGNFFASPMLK
Nature of the experiment: MgcRacGAP GTPase-activating activity inhibitors, confirmation, biochemical, ADP Hunter fluorescence, primary and confirmatory (AID 624330). The class given is functional.

A further experiment concerns the target Cytochrome P450 3A4 (Homo sapiens, UniProt P08684).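 Also: CYP3A4 tested as one member of a cytochrome P450 panel screen.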
The subject of the next experiment is Streptococcus. The experiment in a line: Group A Streptococcus viability loss, dose response, counter-screen for streptokinase expression inhibitor project, luminescence, BacTiterGlo (AID 1915).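 Also: potency for reduction of bacterial viability or growth.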 The class given is functional, organism-based. A general note: The purpose of a counterscreen is to sort out artefacts and off-target activity.
The next experiment has as its target T2, Streptokinase A (Streptococcus pyogenes serotype M1, UniProt P10520).
T2 sequence (P10520 whole entry): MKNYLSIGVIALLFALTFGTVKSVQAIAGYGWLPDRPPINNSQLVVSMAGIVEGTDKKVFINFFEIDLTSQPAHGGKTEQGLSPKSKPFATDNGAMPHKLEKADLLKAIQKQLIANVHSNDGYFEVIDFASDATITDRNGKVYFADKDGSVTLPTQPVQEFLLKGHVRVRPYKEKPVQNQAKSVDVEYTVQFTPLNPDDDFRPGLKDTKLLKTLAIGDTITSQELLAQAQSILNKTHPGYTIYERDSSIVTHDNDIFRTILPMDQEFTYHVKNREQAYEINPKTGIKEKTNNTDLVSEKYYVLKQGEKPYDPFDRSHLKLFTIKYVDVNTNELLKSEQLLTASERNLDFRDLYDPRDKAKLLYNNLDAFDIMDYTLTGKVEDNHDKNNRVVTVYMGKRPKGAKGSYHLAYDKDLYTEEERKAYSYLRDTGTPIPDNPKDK
The experiment in a line: S. pyogenes streptokinase expression inhibitors, potency, dose response, plasminogen activation absorbance, OD405 (AID 1914).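 Also: secreted streptokinase activity via plasminogen activation per viability signal from cell pellet.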 The experiment is classed as functional, Streptococcus pyogenes M1 GAS.

For experiment [2], the system named is Streptococcus sp. 'group A'. The experiment in a line: growth inhibition of control SK(-) GAS strain, dose response, counter-screen for streptokinase expression inhibitor project, luminescence, kanamycin, BacTiterGlo, confirmation (AID 1900). The experiment is classed as functional, organism-based.
In the next experiment the target is T3, Cytochrome P450 1A2 (Homo sapiens, UniProt P05177).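 Also: PubChem cytochrome P450 panel assay, CYP1A2 panel member.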
T3 sequence (P05177 whole entry): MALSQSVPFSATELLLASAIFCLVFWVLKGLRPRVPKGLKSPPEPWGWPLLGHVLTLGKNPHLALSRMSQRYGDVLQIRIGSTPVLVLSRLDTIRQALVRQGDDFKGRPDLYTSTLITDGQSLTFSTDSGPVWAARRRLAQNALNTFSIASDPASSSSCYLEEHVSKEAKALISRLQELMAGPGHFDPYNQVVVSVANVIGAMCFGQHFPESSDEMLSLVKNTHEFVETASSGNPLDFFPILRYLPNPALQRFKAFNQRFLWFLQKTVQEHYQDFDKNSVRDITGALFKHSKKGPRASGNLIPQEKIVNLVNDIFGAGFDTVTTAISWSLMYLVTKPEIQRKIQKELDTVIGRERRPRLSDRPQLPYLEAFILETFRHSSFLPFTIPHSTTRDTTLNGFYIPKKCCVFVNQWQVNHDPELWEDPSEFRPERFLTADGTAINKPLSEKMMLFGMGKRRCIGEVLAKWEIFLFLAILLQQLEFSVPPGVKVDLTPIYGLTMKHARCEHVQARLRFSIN

In a further experiment the target is Cytochrome P450 2C9 (Homo sapiens, UniProt P11712).
Cytochrome P450 2C9, sequence (P11712 whole entry): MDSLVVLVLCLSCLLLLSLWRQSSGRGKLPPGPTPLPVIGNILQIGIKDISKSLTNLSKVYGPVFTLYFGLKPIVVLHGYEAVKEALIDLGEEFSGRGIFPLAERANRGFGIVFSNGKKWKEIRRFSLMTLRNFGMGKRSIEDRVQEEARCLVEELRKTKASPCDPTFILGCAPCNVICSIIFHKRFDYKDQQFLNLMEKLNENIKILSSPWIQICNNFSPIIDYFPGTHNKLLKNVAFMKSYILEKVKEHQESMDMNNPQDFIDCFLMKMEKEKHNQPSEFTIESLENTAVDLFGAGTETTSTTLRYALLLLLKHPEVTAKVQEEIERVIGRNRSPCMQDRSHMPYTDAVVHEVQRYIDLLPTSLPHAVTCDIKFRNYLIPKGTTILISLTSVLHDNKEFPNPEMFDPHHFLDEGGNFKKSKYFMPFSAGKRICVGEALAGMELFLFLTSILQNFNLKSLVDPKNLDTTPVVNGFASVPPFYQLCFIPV
Experiment [3] concerns the target T4, Corticotropin-releasing factor receptor 2/Corticotropin-releasing factor-binding protein (Homo sapiens, UniProt P24387+Q13324).
T4 sequence (Q13324 whole entry): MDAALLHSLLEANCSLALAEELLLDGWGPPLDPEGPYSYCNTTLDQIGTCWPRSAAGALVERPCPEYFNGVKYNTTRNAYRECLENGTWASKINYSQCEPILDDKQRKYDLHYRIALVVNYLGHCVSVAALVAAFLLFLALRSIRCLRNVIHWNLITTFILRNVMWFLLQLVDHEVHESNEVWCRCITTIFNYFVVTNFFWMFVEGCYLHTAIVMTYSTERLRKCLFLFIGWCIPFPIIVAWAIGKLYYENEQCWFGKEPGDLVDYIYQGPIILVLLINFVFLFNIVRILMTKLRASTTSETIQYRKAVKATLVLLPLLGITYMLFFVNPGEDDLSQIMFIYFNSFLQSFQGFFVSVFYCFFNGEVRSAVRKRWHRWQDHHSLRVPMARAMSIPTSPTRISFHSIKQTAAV
T4 sequence (P24387 whole entry): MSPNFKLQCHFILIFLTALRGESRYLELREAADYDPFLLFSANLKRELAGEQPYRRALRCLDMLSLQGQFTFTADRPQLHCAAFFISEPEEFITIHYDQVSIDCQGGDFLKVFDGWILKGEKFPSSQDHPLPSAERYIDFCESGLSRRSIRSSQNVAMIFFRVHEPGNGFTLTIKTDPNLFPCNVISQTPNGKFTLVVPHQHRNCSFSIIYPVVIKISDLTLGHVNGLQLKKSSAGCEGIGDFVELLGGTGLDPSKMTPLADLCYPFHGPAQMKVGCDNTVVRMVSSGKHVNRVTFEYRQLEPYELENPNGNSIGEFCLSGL
The experiment in a line: activators of CRF receptor 2 with binding protein – uHTS hits, confirmation (AID 602473). The experiment is classed as functional. The conditions noted are these: read-out: EC50_Mean.

Experiment [4] in a line: cytotoxicity toward NIH3T3 fibroblasts, dose response, counter-screen, cell-based, ATP luminescence, mouse fibroblasts (AID 2010).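 Also: cells exposed to compound for about 90 hours before reading.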 The experiment is classed as functional.
Experiment [5] can be described thus: inhibitors of intracellular T. cruzi replication, confirmation, NIH3T3 host cells, beta-gal luminescence (AID 2044).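 Also: intracellular parasites grown in NIH/3T3 mouse fibroblasts as host cells; luminescent beta-galactosidase reporter signal from transgenic T. cruzi replicating inside host cells; inhibitors lower the luminescence signal.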 The class given is functional, cell-based.

A word on the IC50: it is the concentration needed to halve the response being measured. Usually AC50 stands for the midpoint of the concentration-response curve, whichever way the signal moves.

“And” between values parts separate entries of the source, which are not always exact repeats. Identical values can stand only once. The source made the active and inactive calls. Rule as the data show it, for most assays here: actives have a measured EC50 and inactives only a lower limit.

Cytochrome P450 3A4, sequence (P08684 whole entry): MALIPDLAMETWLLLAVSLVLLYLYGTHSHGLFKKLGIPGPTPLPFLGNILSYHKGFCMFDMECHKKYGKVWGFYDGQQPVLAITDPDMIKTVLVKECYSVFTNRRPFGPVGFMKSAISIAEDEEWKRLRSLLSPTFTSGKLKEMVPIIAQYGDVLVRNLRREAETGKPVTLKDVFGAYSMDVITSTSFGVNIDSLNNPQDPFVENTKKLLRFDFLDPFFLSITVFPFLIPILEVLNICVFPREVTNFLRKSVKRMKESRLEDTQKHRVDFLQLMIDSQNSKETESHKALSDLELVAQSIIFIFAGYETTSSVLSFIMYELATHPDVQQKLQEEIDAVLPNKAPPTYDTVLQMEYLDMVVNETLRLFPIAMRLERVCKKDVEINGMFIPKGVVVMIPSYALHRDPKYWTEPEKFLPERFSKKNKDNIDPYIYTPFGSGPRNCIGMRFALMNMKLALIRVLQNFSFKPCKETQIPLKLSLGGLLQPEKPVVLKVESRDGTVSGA

As for `Cc1sc2ncnc(Nc3ccc(O)cc3)c2c1C`, the IC50 in [1] was 39.4 µM (active). Consider `Cc1ccc(Nc2nnc(S)s2)cc1F`, for which the IC50 in [1] is 54.5 µM (active). As to `COc1cccc([C@H](O)Cn2cc(-c3cccc(CON=C(C)C)c3)nn2)c1`, the AC50 at Cytochrome P450 3A4 was 3.98 µM (inconclusive).

For the compound `COc1cc(CN2CCN(c3ccccc3F)CC2)cc(OC)c1O`, the IC50 in experiment [1] was 143 µM (active). Still for that read-out and setting: to `c1ccc(-c2nnc3n2NC(c2ccc4c(c2)OCO4)S3)cc1` (stereo not given) belongs 153 µM (active). On to `CCC(C(=O)NCCCN1CCCC1=O)n1c2ccccc2c2nc(=O)cc(C)n21` (stereo not given), for which the EC50 (in the experiment on Streptococcus; at Streptokinase A; in experiment [2]) was > 150 µM (not active) each time. With `O=C(c1ccccc1)c1ccc2n1CC[C@H]2C(=O)O`, the AC50 on Cytochrome P450 1A2 was 25.1 µM (inconclusive) and 15.8 µM (inconclusive). In the case of `CCCCc1ccc(-c2nc(NC(=O)C3C4CCC(O4)C3C(=O)O)sc2C)cc1` (stereo not given), the AC50 on Cytochrome P450 2C9 was 3.55 µM (inconclusive); at Cytochrome P450 3A4, 14.1 µM (inconclusive).

Turning to `CCOc1ccc2c(c1)C(C)=CC(C)(C)N2` [E324], the AC50 on Cytochrome P450 3A4 was 12.6 µM (inconclusive). Take `COc1cc2c(cc1OC)[C@@]13CCN4C=C5CCO[C@H]6CC(=O)N2[C@@H]1[C@@H]6[C@H]5C[C@H]43`: at Cytochrome P450 1A2, the half-maximal activity concentration (AC50) is 5.01 µM (inconclusive). The same measure, in the same setting: the same measure for `COc1ccc(CNC(=O)c2cnc(C)cn2)cc1`: 12.6 µM (inconclusive).

Turning to `N#Cc1cccc(NC(=O)N2CCCC3(CCN(C(=O)c4ccco4)CC3)C2)c1`, the AC50 on Cytochrome P450 1A2 is 15.8 µM (inconclusive). On to `CCOc1cc(CNc2ccc(N3CCOCC3)cc2)cc(Br)c1OCC`, for which the IC50 in experiment [1] was 19.6 µM (active). Turning to `Cc1ccccc1CN1CCCN(Cc2ccc(Cl)cc2)S1(=O)=O`, the EC50 is > 150 µM (not active) in the experiment on Streptococcus, 23.3 µM (active) at Streptokinase A and 10.1 µM (active) in [2].

Regarding `O=C(c1cccc(Cl)c1)N1CCN(C2CCCCC2)CC1`, in [1], the IC50 was 300 µM (active). With `COc1ccc(NC(=N)Nc2nc(C)cc(C)n2)cc1`, the EC50 in [3] was 13.5 µM (active). Still for that read-out and setting: to `CCc1ccc(NC(=O)C(C)OC(=O)/C=C/c2ccc(O)c(OC)c2)cc1` (stereo not given) belongs 5.63 µM (active). For `O=c1c([N+](=O)[O-])cccn1Cc1ccc(F)cc1Cl`, the EC50 is 7.88 µM (active) with Streptococcus, > 150 µM (not active) at Streptokinase A and 3.27 µM (active) in experiment [2]. In the case of `CC(C)CN1CCCC2(CCN(C(=O)c3csnn3)CC2)C1`, the AC50 at Cytochrome P450 3A4 is 31.6 µM (inconclusive). As for `COc1ccc(NC(=O)Cn2nnc(C(=O)NCc3cccs3)c2N)cc1Cl`, the EC50 with Streptococcus was > 150 µM (not active); on Streptokinase A it was > 150 µM (not active); in [2] it was 67.2 µM (active). On to `COc1cccc(CC2(CO)CCCN(Cc3cc4ccccc4[nH]3)C2)c1` (stereo not given), for which the results for the EC50 in experiment [3], in [4] and in experiment [5] were 18.1 µM (active), > 60 µM (not active) and 0.834 µM (active), respectively. With `Cn1c(C(=O)N2CCN(c3ccc([N+](=O)[O-])cc3)CC2)cc2c(O)nc3ccccc3c21`, the figures for the EC50 (with Streptococcus; on Streptokinase A; in experiment [2]) were > 150 µM (not active), > 150 µM (not active) and 5.33 µM (active), respectively.

Regarding `CCCC1(C(=O)OC)C=C2C(=C(C)C(=O)C2C)CN1` (stereo not given), the AC50 on Cytochrome P450 3A4 was 39.8 µM (inconclusive). With `CC(C)(C)OC(=O)N1CCCC1C(=O)NCCc1ccccc1` (stereo not given), on Cytochrome P450 3A4, the AC50 was 25.1 µM (inconclusive). For `Cc1ccc(CNC(=O)c2cccc3c2C(=O)c2ccc(N4CCCCC4)cc2S3(=O)=O)cc1`, the EC50 in experiment [3] is 6.87 µM (active). Same read-out and setting: the same measure for `CN(C)c1ccc(/C=C2\Oc3ccc(C#Cc4cccc(N)c4)cc3C2=O)cc1`: 5.04 µM (active). As to `O=C(Nc1ccc(Br)cc1C(=O)O)c1ccc2c(c1)C(=O)N(Cc1ccccc1)C2=O`, the EC50 in the experiment on Streptococcus was 18.3 µM (active); on Streptokinase A, 17.5 µM (inconclusive); in experiment [2] it was 0.589 µM (active). Consider `O=[N+]([O-])c1cccc(/C=N/Nc2cc(Cl)nc(-c3ccccc3)n2)c1`, for which the AC50 on Cytochrome P450 3A4 was 17.8 µM (inconclusive).

Turning to `C/C(=C(/CCO)SSC[C@@H]1CCCO1)N(C=O)Cc1cnc(C)nc1N`, at Cytochrome P450 3A4, the AC50 is 10 µM (inconclusive). In the case of `COc1ccccc1COCC(O)CNCC1(N2CCCCC2)CCCCC1` (stereo not given), the IC50 in experiment [1] was 121 µM (active). Turning to `O=C(CSc1nnc(CNC(=O)c2ccc(F)cc2)o1)NCc1ccccc1Cl`, the EC50 (with Streptococcus; at Streptokinase A; in experiment [2]) was > 150 µM (not active) throughout. With `CCOC(=O)c1c(CN(C)C)n(-c2ccc(C)cc2)c2cc(Br)c(O)cc12`, the EC50 in the experiment on Streptococcus was > 150 µM (not active); on Streptokinase A, 21.9 µM (active); in experiment [2], 8.71 µM (active).

As to `O=C(O)c1c2c(nc3ccccc13)/C(=C/c1ccc(O)cc1)CCC2`, the IC50 in experiment [1] is 46.6 µM (active).

`O=C(CSCc1ccc(Cl)cc1)Nc1nccs1`: the figures for the AC50 at Cytochrome P450 2C9 and at Cytochrome P450 3A4 were 14.1 µM (inconclusive) and 3.55 µM (inconclusive), respectively.

Consider `Cc1nc(NS(=O)(=O)c2ccc(Cl)s2)c2c3c(sc2n1)CCCC3`, for which the EC50 with Streptococcus was 14.9 µM (active); on Streptokinase A, 21.5 µM (inconclusive); in experiment [2], 4.37 µM (active). Take `CN(Cc1ccccc1)Cn1ccnc1`: the AC50 at Cytochrome P450 3A4 was 3.98 µM (inconclusive). For the compound `Oc1nc2cc3c(cc2cc1C(c1nnnn1C1CCCCC1)N1CCSCC1)OCCO3` (stereo not given), the EC50 in experiment [3] was > 53 µM (inactive). Turning to `Cc1ccccc1NC1=C(C(=O)c2ccccc2)N(C)S(=O)(=O)c2ccccc21`, the AC50 on Cytochrome P450 3A4 is 3.16 µM (inconclusive).
